Assay results as given in patent publication US20020137929A1, “1 - (3-heterocyclylphenyl) isothiourea, -isourea, -guanidine and -amidine herbicidal agents” (Intellectual Property Department, BASF Aktiengesellschaft, priority 1998, published 2002).

How the values were obtained:
CASOB (Sicklepod) = test: Postemergence herbicidal evaluation; assay type: in vivo, Cassia obtusifolia
In short: (§1)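 Young plants, roughly two weeks from seeding, receive the active ingredient as a sprayed dispersion (acetone/water 50/50, 0.5% TWEEN 20) at 40 psi. Doses span about 0.0156 to 0.500 kg/ha. A visual score from 0 to 9 compares treated with control plants four to five weeks on.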

[1] = tested on: CHEAL (Lambsquarters, Common); test: Postemergence herbicidal evaluation; assay type: in vivo, Chenopodium album
In short: as §1

ECHCG (Barnyardgrass) = test: Postemergence herbicidal evaluation; assay type: in vivo, Echinochloa crus-galli
In short: as §1

ORYSAT (Rice, Tebonnet) [2] = test: Postemergence herbicidal evaluation; assay type: in vivo, Oryza sativa, (L.) Tebonnet
In short: as §1

GALAP (Galium) = test: Preemergence herbicidal evaluation; assay type: in vivo, Galium aparine; settings: rated 4-5 weeks after treatment
In short: (§2)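 Rating at 4–5 wk post-spray on a 0–9 visual scale vs control. Application: aqueous acetone, ~0.0156–0.500 kg/ha, to soil surface after seeding, preemergence.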

SETVI (Foxtail, Green) = test: Preemergence herbicidal evaluation; assay type: in vivo, Setaria viridis; settings: rated 4-5 weeks after treatment
In short: as §2

[3] = tested on: GLXMAW (Soybean, Williams); test: Preemergence herbicidal evaluation; assay type: in vivo, Glycine max, (L.) Merr. cv Williams; settings: rated 4-5 weeks after treatment
In short: as §2

ORYSAT (Rice, Tebonnet) [4] = test: Preemergence herbicidal evaluation; assay type: in vivo, Oryza sativa, (L.) Tebonnet; settings: rated 4-5 weeks after treatment
In short: as §2

[5] = tested on: TRZAWR (Wheat, Winter, cv Riband); test: Preemergence herbicidal evaluation; assay type: in vivo, Triticum aestivum; settings: rated 4-5 weeks after treatment
In short: as §2

ZEAMX (Corn, Field) = test: Preemergence herbicidal evaluation; assay type: in vivo, Zea mays; settings: rated 4-5 weeks after treatment
In short: as §2

CYPIR (Rice Flatsedge) = test: Preemergence weed control under flooded paddy conditions; assay type: in vivo, Cyperus iria; settings: rated 3-4 weeks after treatment
In short: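 Seeds or propagules sown in silt loam kept flooded 1.5-3 cm; compounds in 50/50 acetone/water pipetted into flood water at about 0.0313 to 0.500 kg/ha. Greenhouse; visual 0-9 rating versus untreated control 3-4 weeks after treatment.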

MOOVA (Monochoria) = test: as above; assay type: in vivo, Monochoria vaginalis; settings: rated 3-4 weeks after treatment
In short: (§3)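 Silt loam, seeds in top 0.5 cm; flood held 1.5-3 cm; test cpd as acetone/water 50/50 into flood water, ~0.0313-0.500 kg/ha a.i.; greenhouse 3-4 wk; visual 0-9 score vs control.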

[6] = tested on: SAGPY (Arrowhead (Pygmaea)); test: as above; assay type: in vivo, Sagittaria pygmaea; settings: rated 3-4 weeks after treatment
In short: as §3

CYPSE (Flatsedge) = test: Postemergence weed control under flooded paddy conditions; assay type: in vivo, Cyperus serotinus; settings: postemergence weeds, 3-4 weeks after treatment
In short: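 Weeds 3 to 5 cm tall and rice seedlings at the 1.5 to 2.5 leaf stage were flooded, with water held 1.5 to 3 cm above the soil. Compounds in 50/50 v/v aqueous/acetone went into the flood water at about 0.0313 to 0.500 kg/ha. Visual 0-9 ratings versus control were made 3 to 4 weeks later.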

## CCOC(=O)COc1ccccc1CC1S/C(=N/c2cc(-n3c(=O)cc(C(F)(F)F)n(C)c3=O)c(F)cc2Cl)N(CC(=O)OCC)C1=O (stereo not shown) [Compound 42, 2-{{2-Chloro-5-[3,6-dihydro-3-methyl-2,6-dioxo-4-(trifluoromethyl)-1(2H)-pyrimidinyl]-4-fluoro-phenyl}imino}-5-(o-hydroxybenzyl)-4-oxo-3-thiazolidineacetic acid, ethyl ester, ester with ethyl glycolate]
CASOB (Sicklepod); Rate 0.0158 kg/ha
  Postemergence herbicidal rating CASOB: 4.0
CASOB (Sicklepod); Rate 0.0315 kg/ha
  Postemergence herbicidal rating CASOB: 3.0
CASOB (Sicklepod); Rate 0.0630 kg/ha
  Postemergence herbicidal rating CASOB: 7.0
[1]; Rate 0.0158 kg/ha
  Postemergence herbicidal rating CHEAL: 3.0
[1]; Rate 0.0315 kg/ha
  Postemergence herbicidal rating CHEAL: 9.0
[1]; Rate 0.0630 kg/ha
  Postemergence herbicidal rating CHEAL: 6.0
ECHCG (Barnyardgrass); Rate 0.0158 kg/ha
  Postemergence herbicidal rating ECHCG: 1.0
ECHCG (Barnyardgrass); Rate 0.0315 kg/ha
  Postemergence herbicidal rating ECHCG: 2.0
ECHCG (Barnyardgrass); Rate 0.0630 kg/ha
  Postemergence herbicidal rating ECHCG: 4.0
ORYSAT (Rice, Tebonnet) [2]; Rate 0.0158 kg/ha
  Postemergence herbicidal rating ORYSAT: 2.5
ORYSAT (Rice, Tebonnet) [2]; Rate 0.0315 kg/ha
  Postemergence herbicidal rating ORYSAT: 2.5
ORYSAT (Rice, Tebonnet) [2]; Rate 0.0630 kg/ha
  Postemergence herbicidal rating ORYSAT: 3.0
GALAP (Galium); rate 0.0313 kg/ha
  Preemergence herbicidal rating GALAP: 0.0
GALAP (Galium); rate 0.0625 kg/ha
  Preemergence herbicidal rating GALAP: 0.0
GALAP (Galium); rate 0.1250 kg/ha
  Preemergence herbicidal rating GALAP: 0.0
GALAP (Galium); rate 0.2500 kg/ha
  Preemergence herbicidal rating GALAP: 0.0
SETVI (Foxtail, Green); rate 0.0313 kg/ha
  Preemergence herbicidal rating SETVI: 0.0
SETVI (Foxtail, Green); rate 0.0625 kg/ha
  Preemergence herbicidal rating SETVI: 1.0
SETVI (Foxtail, Green); rate 0.1250 kg/ha
  Preemergence herbicidal rating SETVI: 0.0
SETVI (Foxtail, Green); rate 0.2500 kg/ha
  Preemergence herbicidal rating SETVI: 0.0
[3]; rate 0.0313 kg/ha
  Preemergence herbicidal rating GLXMAW: 0.0
[3]; rate 0.0625 kg/ha
  Preemergence herbicidal rating GLXMAW: 0.0
[3]; rate 0.1250 kg/ha
  Preemergence herbicidal rating GLXMAW: 1.0
[3]; rate 0.2500 kg/ha
  Preemergence herbicidal rating GLXMAW: 1.0
ORYSAT (Rice, Tebonnet) [4]; rate 0.0313 kg/ha
  Preemergence herbicidal rating ORYSAT: 0.0
ORYSAT (Rice, Tebonnet) [4]; rate 0.0625 kg/ha
  Preemergence herbicidal rating ORYSAT: 0.0
ORYSAT (Rice, Tebonnet) [4]; rate 0.1250 kg/ha
  Preemergence herbicidal rating ORYSAT: 0.0
ORYSAT (Rice, Tebonnet) [4]; rate 0.2500 kg/ha
  Preemergence herbicidal rating ORYSAT: 0.0
[5]; rate 0.0313 kg/ha
  Preemergence herbicidal rating TRZAWR: 0.0
[5]; rate 0.0625 kg/ha
  Preemergence herbicidal rating TRZAWR: 0.0
[5]; rate 0.1250 kg/ha
  Preemergence herbicidal rating TRZAWR: 0.0
[5]; rate 0.2500 kg/ha
  Preemergence herbicidal rating TRZAWR: 0.0
ZEAMX (Corn, Field); rate 0.0313 kg/ha
  Preemergence herbicidal rating ZEAMX: 0.0
ZEAMX (Corn, Field); rate 0.0625 kg/ha
  Preemergence herbicidal rating ZEAMX: 1.0
ZEAMX (Corn, Field); rate 0.1250 kg/ha
  Preemergence herbicidal rating ZEAMX: 0.0
ZEAMX (Corn, Field); rate 0.2500 kg/ha
  Preemergence herbicidal rating ZEAMX: 1.0
CYPIR (Rice Flatsedge); 0.0313 kg/ha
  Herbicidal rating CYPIR: 0.0
CYPIR (Rice Flatsedge); 0.0625 kg/ha
  Herbicidal rating CYPIR: 0.0
CYPIR (Rice Flatsedge); 0.1250 kg/ha
  Herbicidal rating CYPIR: 0.0
CYPIR (Rice Flatsedge); 0.2500 kg/ha
  Herbicidal rating CYPIR: 0.0
MOOVA (Monochoria); 0.0313 kg/ha
  Herbicidal rating MOOVA: 7.0
MOOVA (Monochoria); 0.0625 kg/ha
  Herbicidal rating MOOVA: 9.0
MOOVA (Monochoria); 0.1250 kg/ha
  Herbicidal rating MOOVA: 9.0
MOOVA (Monochoria); 0.2500 kg/ha
  Herbicidal rating MOOVA: 9.0
[6]; 0.0313 kg/ha
  Herbicidal rating SAGPY: 0.0
[6]; 0.0625 kg/ha
  Herbicidal rating SAGPY: 0.0
[6]; 0.1250 kg/ha
  Herbicidal rating SAGPY: 0.0
[6]; 0.2500 kg/ha
  Herbicidal rating SAGPY: 3.0
CYPSE (Flatsedge); rate 0.0313 kg/ha
  Herbicidal rating CYPSE: 0.0
CYPSE (Flatsedge); rate 0.0625 kg/ha
  Herbicidal rating CYPSE: 0.0
CYPSE (Flatsedge); rate 0.1250 kg/ha
  Herbicidal rating CYPSE: 0.0
CYPSE (Flatsedge); rate 0.2500 kg/ha
  Herbicidal rating CYPSE: 0.0
